Read-outs that look alike come from different tables or passages of the source.

In the experiment the target is T1, α-7 nicotinic acetylcholine receptor channel expressed in HEK 293 cells (Rattus norvegicus, UniProt Q05941).
T1 construct: expressed in transfected cells
As to the kind of experiment: Ca2+-sensitive fluorescence-based FLIPR assay, α7 nicotinic ACh receptor channel function (agonist). It counts as cell-based. As to the method: I) α7 Nicotinic Acetycholine Receptor Binding. Membranes were prepared for binding using HEK293 cells stably expressing the rat α7 nicotinic acetycholine receptor (rat α7 nAChR). Cells were homogenized at 4° C. in hypotonic lysis buffer consisting of 10 mM Tris (pH 7.4), 5 mM EDTA and protease inhibitors and centrifuged at 32000×g for 20 minutes. The pellet was washed once in membrane wash buffer consisting of 50 mM Tris (pH 7.4), 1 mM EDTA and protease inhibitors and centrifuged at 32000×g for 20 minutes. This pellet was then resuspended in assay buffer consisting 50 mM KH2PO4 (pH 7.4 at 25° C.), 1 mM EDTA, 0.005% Triton-X 100 and 0.1% (v/v) Sigma Protease Inhibitor Cocktail. Aliquots were then frozen in dry ice/ethanol and kept at −80° C. until the day of the assay. II) A Ca^2+-Sensitive, Fluorescence-Based Assay α-7 for Nicotinic Acetylcholine Receptor Channel Function In Mammalian Cells (“FLIPR”). Summary: Lead compounds are evaluated for agonist activity at […], α3β4, […], and α1β1δ1ε sub-types of nicotinic ACh receptor ion channels expressed in mammalian HEK 293 cells. Agonist potency and efficacy values are determined from kinetic fluorescence Ca^2+ influx measurements made using a 384 well FLIPR (Fluorescence Image Plate Reader). […] In this assay, channel expressing HEK cell lines seeded in 384 well assay plates are loaded with a membrane permeant fluorescent Ca^2+ indicator dye, whose 510 nm green emission signal increases in response to elevation of intracellular Ca^2+ concentration. The basal fluorescence from the cells is monitored in real time, followed by the acute addition of test compounds.
Materials and Methods: Reagents: The acetomethoxy (AM) ester of the Ca^2+ indicator dye Fluo-4 was obtained from InVitrogen, (Carlsbad, Calif.). Acetylcholine and all buffer constituents were purchased from Sigma Chemical Company, St. Louis, Mo. G418 and Minimal Essential Medium were purchased from InVitrogen Life Technologies, Carlsbad, Calif. Fetal bovine serum was purchased from (InVitrogen, Carlsbad, Calif.).
Cell Culture: HEK-293 cells were grown in Minimal Essential Medium containing 10% (v/v) fetal bovine serum at 37° C. in a 5% CO2 incubator. HEK-293 cells stably expressing the ion channels were grown in the same medium with the addition of 500 μg/ml G418.
Ca^2+ flux assays of Ca^2+ channels expressed in HEK-293 cells: HEK-293 cells expressing the ion channels of interest were plated in 384 well, black-walled, clear-bottomed, poly-D-lysine coated plates at a density of ˜20,000 cells/well in 20 μl of Minimal Essential Medium containing 10% (v/v) fetal bovine serum and incubated for 2 days at 29° C. in a 5% CO2 incubator. Prior to assay, cells were loaded with the Fluo-4 AM ester. […] Dye loading was allowed to proceed for 90 minutes at room temperature at which time the dye loading solution was removed and replaced with 40 μl/well of Hanks buffer. Cells loaded with dye were loaded onto a FLIPR384 (Molecular Devices, Sunnyvale, Calif.). Fluo-4 dye was excited using the 488 nm line of an argon laser. Emission was filtered using a 540+/−30 nm bandpass filter. For evaluation of the effects of test compounds using the Ca^2+ flux assay, compounds to be tested were provided in assay ready plates. For nicotinic receptor ion channel expressing cells, the assay was initiated by the addition of 20 μl/well of Hanks buffer containing test compounds. For all assays, data were collected at 1 Hz for 10 seconds (baseline), at which time the compound containing stimulus buffers are added, and further measurements collected at 0.33 Hz for 3 min.
Data Analysis: The statistical robustness of the nicotinic receptor Ca^2+ flux assays is determined from blanks and totals wells. […] The raw fluorescence units data files generated on the FLIPR plate reader are automatically exported and processed by in-house data analysis tools.

The mark [1] stands for this setting: FLIPR α7 activity rating (EC50, nM), Table 1, HEK 293 cells, agonist Ca2+ flux.
Where [2] appears, read: FLIPR α7 (EC50, nM), Table 1, HEK 293 cells, agonist Ca2+ flux.

T1 sequence (Q05941 23-502): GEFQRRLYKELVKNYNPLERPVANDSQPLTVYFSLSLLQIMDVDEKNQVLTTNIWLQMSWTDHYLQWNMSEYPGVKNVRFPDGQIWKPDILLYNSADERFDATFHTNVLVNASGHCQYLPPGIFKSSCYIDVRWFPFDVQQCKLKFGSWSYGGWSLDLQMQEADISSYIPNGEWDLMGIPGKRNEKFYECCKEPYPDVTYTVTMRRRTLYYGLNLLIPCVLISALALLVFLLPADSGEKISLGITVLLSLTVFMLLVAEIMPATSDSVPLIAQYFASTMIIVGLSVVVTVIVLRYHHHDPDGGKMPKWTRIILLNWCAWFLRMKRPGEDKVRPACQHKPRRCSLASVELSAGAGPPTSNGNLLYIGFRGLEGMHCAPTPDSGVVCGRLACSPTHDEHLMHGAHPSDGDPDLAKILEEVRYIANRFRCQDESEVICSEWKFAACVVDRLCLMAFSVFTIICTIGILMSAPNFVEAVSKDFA

As to `c1ccc2sc(NC3=NCC4(CN5CCC4CC5)O3)nc2c1` (racemic) [Example 1, N-(benzo[d]thiazol-2-yl)-4H-1′-azaspiro[oxazole-5,3′-bicyclo[2.2.2]octan]-2-amine], the EC50 under setting [1] is under 100 nM. Still for that read-out and setting: in the case of `COc1ccc2nc(NC3=NCC4(CN5CCC4CC5)O3)sc2n1` (racemic) [Example 2, N-(5-Methoxythiazolo[5,4-b]pyridin-2-yl)-4H-1′-azaspiro[oxazole-5,3′-bicyclo[2.2.2]octan]-2-amine] it was 100 to 1000 nM; in that of `Clc1cccc2sc(NC3=NCC4(CN5CCC4CC5)O3)nc12` (racemic) [Example 7, N-(4-chlorobenzo[d]thiazol-2-yl)-4H-1′-azaspiro[oxazole-5,3′-bicyclo[2.2.2]octan]-2-amine], 100 to 1000 nM; in that of `Oc1ccc2nc(NC3=NCC4(CN5CCC4CC5)O3)sc2c1` (racemic) [Example 13, 2-(4H-1′-Azaspiro[oxazole-5,3′-bicyclo[2.2.2]octane]-2-ylamino)benzo[d]thiazol-6-ol], under 100 nM. Under setting [1], `C1CCc2sc(NC3=NCC4(CN5CCC4CC5)O3)nc2C1` (racemic) [Example 14, N-(4,5,6,7-Tetrahydrobenzo[d]thiazol-2-yl)-4H-1′-azaspiro[oxazole-5,3′-bicyclo[2.2.2]octan]-2-amine] registered a half-maximal effective concentration (EC50) of 100 to 1000 nM. Compound `CC(C)c1csc(NC2=NCC3(CN4CCC3CC4)O2)n1` (racemic) [Example 15, N-(4-Isopropylthiazol-2-yl)-4H-1′-azaspiro[oxazole-5,3′-bicyclo[2.2.2]octan]-2-amine] returned an EC50 under setting [1] of 100 to 1000 nM.

Under setting [1], `c1csc(NC2=NCC3(CN4CCC3CC4)O2)n1` (racemic) [Example 16, N-(Thiazol-2-yl)-4H-1′-azaspiro[oxazole-5,3′-bicyclo[2.2.2]octan]-2-amine] yielded an EC50 of 100 to 1000 nM. Still for that read-out and setting: the result for `COc1ccc(-c2nc(NC3=NCC4(CN5CCC4CC5)O3)sc2C)cc1` (racemic) [Example 17, N-(4-(4-Methoxyphenyl)-5-methylthiazol-2-yl)-4H-1′-azaspiro[oxazole-5,3′-bicyclo[2.2.2]octan]-2-amine] reads 100 to 1000 nM.

Turning to `c1cncc(/N=C2\NCC3(CN4CCC3CC4)O2)c1` (racemic) [Example 18, (E)-N-(1′-Azaspiro[oxazolidine-5,3′-bicyclo[2.2.2]octane]-2-ylidene)pyridin-3-amine], a half-maximal effect (EC50) was put at 3930 nM. In addition, the EC50 under setting [1] was 1000 to 100000 nM. As to `COc1ccc(-c2csc(NC3=NCC4(CN5CCC4CC5)O3)n2)cc1` (racemic) [Example 20, N-(4-(4-Methoxyphenyl)thiazol-2-yl)-4H-1′-azaspiro[oxazole-5,3′-bicyclo[2.2.2]octan]-2-amine], the EC50 under setting [1] lay within 100 to 1000 nM. Under setting [1], `Cc1cc(C)c2c(NC3=NCC4(CN5CCC4CC5)O3)nsc2n1` (racemic) [Example 114] showed an EC50 of 100 to 1000 nM. `c1cnnc(NC2=NCC3(CN4CCC3CC4)O2)c1` (racemic) [Example 115] showed an EC50 under setting [1] of 1000 to 100000 nM. The same measure, in the same setting: the result for `COc1ccc(NC2=NCC3(CN4CCC3CC4)O2)nn1` (racemic) [Example 116] reads 1000 to 100000 nM. Same read-out and setting: in the case of `COc1cncc(NC2=NCC3(CN4CCC3CC4)O2)n1` (racemic) [Example 118] it was 1000 to 100000 nM. `COc1nccnc1NC1=NCC2(CN3CCC2CC3)O1` (racemic) [Example 120]: the EC50 is 875 nM under setting [2] and 100 to 1000 nM under setting [1]. `CC(C)(C)c1cc(NC2=NCC3(CN4CCC3CC4)O2)ncn1` (racemic) [Example 121]: the EC50 under setting [1] fell in the range of 1000 to 100000 nM. For the compound `Cc1cc(NC2=NCC3(CN4CCC3CC4)O2)nc(C)n1` (racemic) [Example 123], under setting [1], the EC50 was 1000 to 100000 nM. As to `Cc1ccc(NC2=NCC3(CN4CCC3CC4)O2)nn1` (racemic) [Example 124], the EC50 under setting [1] was 1000 to 100000 nM. Same read-out and setting: in the case of `c1ccc2sc(NC3=NCC4(CN5CCC4CC5)O3)nc2c1` (single isomer, unassigned) [Example 1a] it was 1000 to 100000 nM.

In the case of `c1ccc2sc(NC3=NCC4(CN5CCC4CC5)O3)nc2c1` (single isomer, unassigned) [Example 1b], the EC50 under setting [1] was under 100 nM. On the same count and under the same terms, the result for `COc1ccc2nc(NC3=NCC4(CN5CCC4CC5)O3)sc2n1` (single isomer, unassigned) [Example 2a] reads 1000 to 100000 nM; that for `COc1ccc2nc(NC3=NCC4(CN5CCC4CC5)O3)sc2n1` (single isomer, unassigned) [Example 2b], 100 to 1000 nM; that for `c1ccc(-c2cnc(NC3=NCC4(CN5CCC4CC5)O3)s2)cc1` (single isomer, unassigned) [Example 4a], 1000 to 100000 nM.

Take `c1ccc(-c2cnc(NC3=NCC4(CN5CCC4CC5)O3)s2)cc1` (single isomer, unassigned) [Example 4b]: the EC50 was 230 nM under setting [2] and 100 to 1000 nM under setting [1].

For the compound `COc1ccc2nc(NC3=NCC4(CN5CCC4CC5)O3)sc2c1` (single isomer, unassigned) [Example 5a], the EC50 under setting [1] fell in the range of 1000 to 100000 nM.

`COc1ccc2nc(NC3=NCC4(CN5CCC4CC5)O3)sc2c1` (single isomer, unassigned) [Example 5b]: the EC50 under setting [1] is under 100 nM. Compound `Cc1cccc2sc(NC3=NCC4(CN5CCC4CC5)O3)nc12` (single isomer, unassigned) [Example 6a] gave an EC50 under setting [2] of 4340 nM and a concentration for a half-maximal effect (EC50) under setting [1] of 1000 to 100000 nM. Under setting [1], `Cc1cccc2sc(NC3=NCC4(CN5CCC4CC5)O3)nc12` (single isomer, unassigned) [Example 6b] showed an EC50 of under 100 nM. Take `Clc1cccc2sc(NC3=NCC4(CN5CCC4CC5)O3)nc12` (single isomer, unassigned) [Example 7a]: the EC50 under setting [1] lay in the range of 1000 to 100000 nM. For the compound `Clc1cccc2sc(NC3=NCC4(CN5CCC4CC5)O3)nc12` (single isomer, unassigned) [Example 7b], under setting [1], the EC50 was under 100 nM. As for `c1ccc2[nH]c(NC3=NCC4(CN5CCC4CC5)O3)nc2c1` (single isomer, unassigned) [Example 8a, N-(1H-benzo[d]imidazol-2-yl)-4H-1′-azaspiro[oxazole-5,3′-bicyclo[2.2.2]octan]-2-amine], the EC50 runs as follows: under setting [2], 120 nM; under setting [1], 100 to 1000 nM. Compound `c1ccc2[nH]c(NC3=NCC4(CN5CCC4CC5)O3)nc2c1` (single isomer, unassigned) [Example 8b, N-(1H-benzo[d]imidazol-2-yl)-4H-1′-azaspiro[oxazole-5,3′-bicyclo[2.2.2]octan]-2-amine] displayed an EC50 under setting [1] of 1000 to 100000 nM. Turning to `Clc1ccc2nc(NC3=NCC4(CN5CCC4CC5)O3)sc2c1` (single isomer, unassigned) [Example 9a, N-(6-Chlorobenzo[d]thiazol-2-yl)-4H-1′-azaspiro[oxazole-5,3′-bicyclo[2.2.2]octan]-2-amine], the EC50 is 7310 nM under setting [2] and 1000 to 100000 nM under setting [1].

`Clc1ccc2nc(NC3=NCC4(CN5CCC4CC5)O3)sc2c1` (single isomer, unassigned) [Example 9b, N-(6-Chlorobenzo[d]thiazol-2-yl)-4H-1′-azaspiro[oxazole-5,3′-bicyclo[2.2.2]octan]-2-amine]: the 50% effective concentration (EC50) under setting [1] was under 100 nM. Same read-out and setting: the result for `Cn1c(NC2=NCC3(CN4CCC3CC4)O2)nc2ccccc21` (single isomer, unassigned) [Example 10a, N-(1-methyl-1H-benzo[d]imidazol-2-yl)-4H-1′-azaspiro[oxazole-5,3′-bicyclo[2.2.2]octan]-2-amine] reads 100 to 1000 nM. Take `CCOc1ccc2nc(NC3=NCC4(CN5CCC4CC5)O3)sc2c1` (single isomer, unassigned) [Example 11b, N-(6-Ethoxybenzo[d]thiazol-2-yl)-4H-1′-azaspiro[oxazole-5,3′-bicyclo[2.2.2]octan]-2-amine]: the EC50 is 213 nM under setting [2] and 100 to 1000 nM under setting [1].

Values taken from US8309577B2, “Quinuclidine compounds as α-7 nicotinic acetylcholine receptor ligands” (Bristol-Myers Squibb Company, priority 2008, dated 2012).
